# Measured values reported in article PMC11390765 (Cancer Chemotherapy and Pharmacology, 2024).
# Values joined by “and” are separate entries in the source; they are usually repeats but may differ in a detail not shown here. Equal entries are not always repeated. Marks after values point to notes of the source that are not given here.
# Key:
# [1] = Midazolam plasma pharmacokinetics with or without capivasertib (part A); settings: for AUC(0-inf): AUCinf; for tmax: median (range); for half-life: t½λz
# [2] = Safety and tolerability (adverse events, CTCAE v5.0; full analysis set); assay type: in vivo, human; settings: period 1, day 1 cycle 1, midazolam only 1 mg, N=21
# Method: Safety and tolerability were evaluated in terms of AEs, which were classified and graded according to the National Cancer Institute (NCI) Common Terminology Criteria for Adverse Events (CTCAE) v5.0; vital signs; 12-lead electrocardiogram (ECG); and clinical laboratory assessments, including clinical chemistry and hematology parameters, urinalysis, HbA1c levels, and lipid profiles.
# Efficacy analyses were also performed on the full analysis set. Summary and/or descriptive statistics were used to analyze baseline demographic, safety, and efficacy data; PFS and DoR were estimated using Kaplan–Meier methodology.
# [3] = Plasma pharmacokinetics of capivasertib and its glucuronide metabolite; assay type: in vivo, human
# [4] = tested on: CYP; parameters: method as in unpublished data; settings: ref unpublished data; cited from earlier work
# [5] = human, plasma, oral, geometric mean (gCV%), day 8 of cycle 1, midazolam 1 mg on 3rd day off capivasertib 400 mg BID, N = 16
# [6] = human, plasma, oral, geometric mean (gCV%), day 12 of cycle 1, midazolam 1 mg on 4th day on capivasertib 400 mg BID, N = 15
# [7] = human, plasma, po, 1 mg, geometric mean (gCV%), day 1 of cycle 1, midazolam alone, single oral 1 mg, N = 18
structure (smiles),measurement,setting,value
"Cc1ncc2n1-c1ccc(Cl)cc1C(c1ccccc1F)=NC2 [midazolam, reference compound]",Cmax,"[1]; geometric mean (gCV%), day 1 of cycle 1, midazolam alone, single oral 1 mg, N = 18",8.55^a (39.6) ng/mL
same,AUClast,"[1]; geometric mean (gCV%), day 8 of cycle 1, midazolam 1 mg on 3rd day off capivasertib 400 mg BID, N = 16",24.49^b (45.3) h*ng/mL
same,AUC(0-inf),[1]; [5],28.3 ng·h/mL
same,AUC(0-inf),[1]; [6],39.5 ng·h/mL
same,Cmax,"[1]; human, plasma, oral, Cmax, geometric mean (gCV%), day 8 of cycle 1, midazolam 1 mg on 3rd day off capivasertib 400 mg BID, N = 16",9.9 ng/mL
same,Cmax,"[1]; human, plasma, oral, Cmax, geometric mean (gCV%), day 12 of cycle 1, midazolam 1 mg on 4th day on capivasertib 400 mg BID, N = 15",9.83 ng/mL
same,tmax,"[1]; human, plasma, oral, day 8 of cycle 1, midazolam 1 mg on 3rd day off capivasertib 400 mg BID, N = 16",~0.5 h
same,tmax,"[1]; human, plasma, oral, day 12 of cycle 1, midazolam 1 mg on 4th day on capivasertib 400 mg BID, N = 15",~0.5 h
same,half-life,[1]; [5],8.52 h
same,half-life,[1]; [6],7.23 h
same,AUC(0-t),"[1]; human, plasma, po, 1 mg",22.4 ng·h/mL
same,AUC(0-inf),[1]; [7],25 ng·h/mL
same,tmax,"[1]; human, plasma, po, 1 mg, day 1 of cycle 1, midazolam alone, single oral 1 mg, N = 18",~0.5 h
same,half-life,[1]; [7],7.24 h
same,"Abdominal pain, any grade",[2],0 n (%)
same,"Abdominal pain, grade ≥ 3",[2],0 n (%)
same,"Anemia, any grade",[2],0 n (%)
same,"Anemia, grade ≥ 3",[2],0 n (%)
same,"Any AE, any grade",[2],3 (14.3) n (%)
same,"Any AE, grade ≥ 3",[2],0 n (%)
same,"Asthenia, any grade",[2],0 n (%)
same,"Asthenia, grade ≥ 3",[2],0 n (%)
same,"Blood alkaline phosphatase increased, any grade",[2],0 n (%)
same,"Blood alkaline phosphatase increased, grade ≥ 3",[2],0 n (%)
same,"Blood bilirubin increased, any grade",[2],0 n (%)
same,"Blood bilirubin increased, grade ≥ 3",[2],0 n (%)
same,"Blood creatinine increased, any grade",[2],0 n (%)
same,"Blood creatinine increased, grade ≥ 3",[2],0 n (%)
same,"COVID-19, any grade",[2],0 n (%)
same,"COVID-19, grade ≥ 3",[2],0 n (%)
same,"Decreased appetite, any grade",[2],0 n (%)
same,"Decreased appetite, grade ≥ 3",[2],0 n (%)
same,"Diarrhea, any grade",[2],0 n (%)
same,"Diarrhea, grade ≥ 3",[2],0 n (%)
same,"Fatigue, any grade",[2],0 n (%)
same,"Fatigue, grade ≥ 3",[2],0 n (%)
same,"Gamma-glutamyl transferase increased, any grade",[2],0 n (%)
same,"Gamma-glutamyl transferase increased, grade ≥ 3",[2],0 n (%)
same,"Hyperglycemia, any grade",[2],1 (4.8) n (%)
same,"Hyperglycemia, grade ≥ 3",[2],0 n (%)
same,"Hypoalbuminemia, any grade",[2],0 n (%)
same,"Hypoalbuminemia, grade ≥ 3",[2],0 n (%)
same,"Hypokalemia, any grade",[2],0 n (%)
same,"Hypokalemia, grade ≥ 3",[2],0 n (%)
same,"Hyponatremia, any grade",[2],0 n (%)
same,"Hyponatremia, grade ≥ 3",[2],0 n (%)
same,"Hypotension, any grade",[2],0 n (%)
same,"Hypotension, grade ≥ 3",[2],0 n (%)
same,"Large intestinal obstruction, any grade",[2],0 n (%)
same,"Large intestinal obstruction, grade ≥ 3",[2],0 n (%)
same,"Lymphocyte count decreased, any grade",[2],0 n (%)
same,"Lymphocyte count decreased, grade ≥ 3",[2],0 n (%)
same,"Nausea, any grade",[2],0 n (%)
same,"Nausea, grade ≥ 3",[2],0 n (%)
same,"Rash (group term), any grade",[2],0 n (%)
same,"Rash (group term), grade ≥ 3",[2],0 n (%)
same,"Sepsis, any grade",[2],0 n (%)
same,"Sepsis, grade ≥ 3",[2],0 n (%)
same,"Thrombocytopenia, any grade",[2],0 n (%)
same,"Thrombocytopenia, grade ≥ 3",[2],0 n (%)
same,"Ureteric obstruction, any grade",[2],0 n (%)
same,"Ureteric obstruction, grade ≥ 3",[2],0 n (%)
same,"Urticaria, any grade",[2],0 n (%)
same,"Urticaria, grade ≥ 3",[2],0 n (%)
NC1(C(=O)N[C@@H](CCO[C@@H]2O[C@H](C(=O)O)[C@@H](O)[C@H](O)[C@H]2O)c2ccc(Cl)cc2)CCN(c2ncnc3[nH]ccc23)CC1 [AZ14102143],AUCτ,"[3]; geometric mean (gCV%), 12-h dosing interval, day 12 of cycle 1, capivasertib 400 mg BID","68,810 h*ng/mL"
same,"Ctrough cycle 1, day 13","[3]; geometric mean (gCV%), 12 h post day 12 capivasertib evening dose",2575 ng/mL and 2575^f (106.9) ng/mL
same,"Ctrough cycle 1, day 9","[3]; geometric mean (gCV%), after 3 off-capivasertib-dosing days",45.22 ng/mL and 45.22^e (242.1) ng/mL
same,Cmax,"[3]; geometric mean (gCV%), day 12 of cycle 1, 4th day on capivasertib 400 mg BID, with single oral midazolam 1 mg","11,220 ng/mL"
same,t½λz,"[3]; geometric mean (gCV%), day 12 of cycle 1, capivasertib 400 mg BID",3.40 h
same,tmax,"[3]; median (range), day 12 of cycle 1, capivasertib 400 mg BID",2.03^a (0.6–7.6) h
same,CYP inhibition in vitro,[4],little or no CYP inhibition
